Assay results taken from ChEMBL document CHEMBL3045246, “Investigation on the substitution effects of the flavonoids as potent anticancer agents: a structureactivity relationships study” (Med Chem Res, 2012).

Assays:
HepG2 = test: Cytotoxicity against Homo sapiens (human) HepG2 cells after 48 hr by MTT reduction assay; format: functional, cell-based; details: HepG2, 48 h
SMMC-7721 = test: Cytotoxicity against Homo sapiens (human) SMMC7721 cells after 48 hr by MTT reduction assay; format: functional, cell-based; details: SMMC-7721, 48 h
[1] = target: Cyclin-dependent kinase 1/cyclin B1 (Homo sapiens, UniProt P06493); test: Inhibition of CDK1/Cyclin B (unknown origin) by Z-LYTE assay; format: protein-complex assay
Chain of Cyclin-dependent kinase 1/cyclin B1 (P06493 whole entry): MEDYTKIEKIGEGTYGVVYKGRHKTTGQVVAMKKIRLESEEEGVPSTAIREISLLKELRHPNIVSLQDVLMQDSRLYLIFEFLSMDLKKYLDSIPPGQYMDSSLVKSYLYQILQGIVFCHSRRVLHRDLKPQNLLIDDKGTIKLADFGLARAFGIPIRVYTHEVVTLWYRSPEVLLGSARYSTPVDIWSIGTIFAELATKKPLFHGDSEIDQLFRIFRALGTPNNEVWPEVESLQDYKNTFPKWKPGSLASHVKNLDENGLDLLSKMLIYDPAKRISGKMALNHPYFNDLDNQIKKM
Chain of Cyclin-dependent kinase 1/cyclin B1 (P14635 whole entry, further chain): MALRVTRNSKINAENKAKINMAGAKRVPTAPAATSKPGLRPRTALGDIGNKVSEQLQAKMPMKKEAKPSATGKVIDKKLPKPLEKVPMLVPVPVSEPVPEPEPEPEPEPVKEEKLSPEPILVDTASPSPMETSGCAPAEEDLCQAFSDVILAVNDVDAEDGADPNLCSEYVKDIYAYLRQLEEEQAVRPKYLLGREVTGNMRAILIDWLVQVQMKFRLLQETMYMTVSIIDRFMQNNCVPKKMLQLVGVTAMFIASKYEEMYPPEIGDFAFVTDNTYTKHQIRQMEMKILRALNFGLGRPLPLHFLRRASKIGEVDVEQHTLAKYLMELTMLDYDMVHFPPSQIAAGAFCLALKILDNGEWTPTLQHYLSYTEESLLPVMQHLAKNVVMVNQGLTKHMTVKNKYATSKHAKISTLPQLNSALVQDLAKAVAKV

Row | IC50 [1] [µM] | SMILES | IC50 (HepG2) [µM] | IC50 (SMMC-7721) [µM]
1 |  | Cc1ccc2oc(-c3ccc(N)cc3)cc(=O)c2c1 | 21.3 | 
2 |  | CN1CCN(Cc2ccc3c(=O)cc(-c4ccccc4Cl)oc3c2)CC1 | 14.2 | 12.9
3 |  | O=c1cc(-c2ccccc2Cl)oc2cc(CN3CCNCC3)ccc12 | 2.58 | 1.91
4 |  | CN(C)Cc1ccc2c(=O)cc(-c3ccccc3Cl)oc2c1 |  | 28.2
5 |  | O=c1cc(-c2ccc(Cl)cc2)oc2ccc(CN3CCCCC3)cc12 | 14 | 16.2
6 |  | O=c1cc(-c2ccc(Cl)cc2)oc2ccc(CN3CCNCC3)cc12 | 2.69 | 1.51
7 |  | CC[N+](CC)(CC)Cc1ccc2oc(-c3ccccc3Cl)cc(=O)c2c1 | 61 | 
8 |  | Nc1ccc(-c2cc(=O)c3cc(CN4CCCCC4)ccc3o2)cc1 | 2.64 | 3.68
9 |  | Cc1ccc2c(=O)cc(-c3ccc(Cl)cc3)oc2c1 | 6.83 | 
10 |  | Cc1ccc2c(=O)cc(-c3ccccc3Cl)oc2c1 | 28.3 | 
11 |  | Cc1ccc2c(=O)cc(-c3ccc(N)cc3)oc2c1 | 40.5 | 
12 |  | CN1CCN(Cc2ccc3c(=O)cc(-c4ccc([N+](=O)[O-])cc4)oc3c2)CC1 |  | 10.7
13 | 4.84 | O=c1cc(-c2ccc([N+](=O)[O-])cc2)oc2c(CN3CCNCC3)cc(Cl)cc12 | 0.243 | 1.1
14 |  | CN(C)Cc1cc(Cl)cc2c(=O)cc(-c3ccc([N+](=O)[O-])cc3)oc12 | 6.19 | 56.5
15 | 2.14 | O=c1cc(-c2ccc([N+](=O)[O-])cc2)oc2c(Cn3ccnc3)cc(Cl)cc12 | 2.94 | 1.2
16 | 2.06 | CCN(CC)Cc1cc(Cl)cc2c(=O)cc(-c3ccccc3Cl)oc12 | 7.94 | 0.81
17 |  | O=c1cc(-c2ccccc2Cl)oc2c(CN3CCCCC3)cc(Cl)cc12 | 10.7 | 3.4

Row | IC50 [1] [µM] | SMILES | IC50 (HepG2) [µM] | IC50 (SMMC-7721) [µM]
18 |  | CN1CCN(Cc2cc(Cl)cc3c(=O)cc(-c4ccccc4Cl)oc23)CC1 |  | 3.1
19 |  | O=c1cc(-c2ccccc2Cl)oc2c(CN3CCOCC3)cc(Cl)cc12 | 6.81 | 13.2
20 |  | O=c1cc(-c2ccccc2Cl)oc2c(CN3CCNCC3)cc(Cl)cc12 | 18.7 | 2.69
21 |  | CN(C)Cc1cc(Cl)cc2c(=O)cc(-c3ccccc3Cl)oc12 | 1.87 | 1.14
22 |  | O=c1cc(-c2ccccc2Cl)oc2c(Cn3ccnc3)cc(Cl)cc12 | 3.27 | 1.07
23 | 2.17 | O=c1cc(-c2ccc(Cl)cc2)oc2c(CN3CCOCC3)cc(Cl)cc12 | 6.33 | 15.3
24 |  | Cc1ccc2oc(-c3ccccc3Cl)cc(=O)c2c1 | 6.23 | 15.1
25 |  | CN1CCN(Cc2ccc3oc(-c4ccc([N+](=O)[O-])cc4)cc(=O)c3c2)CC1 |  | 19
26 |  | Cc1cc(Cl)cc2c(=O)cc(-c3ccc(N)cc3)oc12 | 11.9 | 
27 | 2.21 | CCN(CC)Cc1cccc2c(=O)cc(-c3ccc([N+](=O)[O-])cc3)oc12 | 28.8 | 
28 | 8.13 | CN1CCN(Cc2cccc3c(=O)cc(-c4ccc([N+](=O)[O-])cc4)oc23)CC1 | 2.94 | 1.19
29 |  | CCN(CC)Cc1cc(Cl)cc2c(=O)cc(-c3ccc([N+](=O)[O-])cc3)oc12 | 1.19 | 2.99
30 |  | O=c1cc(-c2ccc([N+](=O)[O-])cc2)oc2c(CN3CCCCC3)cc(Cl)cc12 | 8.91 | 1.09
31 | 6.22 | CN1CCN(Cc2cc(Cl)cc3c(=O)cc(-c4ccc([N+](=O)[O-])cc4)oc23)CC1 | 1.76 | 5.21
32 |  | O=c1cc(-c2ccc([N+](=O)[O-])cc2)oc2cc(CN3CCNCC3)ccc12 | 4.53 | 2.03
33 |  | CCN(CC)Cc1ccc2c(=O)cc(-c3ccccc3Cl)oc2c1 | 10.7 | 
34 |  | O=c1cc(-c2ccccc2Cl)oc2cc(CN3CCCCC3)ccc12 | 3.64 | 
